Measurements: patent US20240287022A1 (Merck Sharp & Dohme LLC, priority 2021, published 2024)

Molecular target: recombinant IL4I1 (Homo sapiens (Human), UniProt Q96RQ9)
Experiment: IL4I1 Enzymatic Assay (Amplex Red/HRP coupled H2O2 detection)
Type: biochemical
Details: 1 nM IL4I1, 1 mM each Phe/Tyr/Trp, four-hour pre-incubation, 120 minutes reaction, top compound concentration of 10000 nM
Summary of the method: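 Recombinant IL4I1 (1 nM final) was pre-incubated 4 h at ambient temperature with compound in 50 mM Hepes pH 7.0, 0.005% Tween20. Reaction ran 120 min with 1 mM each Phe/Tyr/Trp, 0.05 mM Amplex Red and 1 U/mL HRP. Resorufin fluorescence (544/590 nm) was read, and EC50 fitted from ten-point 1:3 titrations (top 10000 nM) by four-parameter regression.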

recombinant IL4I1, sequence (Q96RQ9 22-567): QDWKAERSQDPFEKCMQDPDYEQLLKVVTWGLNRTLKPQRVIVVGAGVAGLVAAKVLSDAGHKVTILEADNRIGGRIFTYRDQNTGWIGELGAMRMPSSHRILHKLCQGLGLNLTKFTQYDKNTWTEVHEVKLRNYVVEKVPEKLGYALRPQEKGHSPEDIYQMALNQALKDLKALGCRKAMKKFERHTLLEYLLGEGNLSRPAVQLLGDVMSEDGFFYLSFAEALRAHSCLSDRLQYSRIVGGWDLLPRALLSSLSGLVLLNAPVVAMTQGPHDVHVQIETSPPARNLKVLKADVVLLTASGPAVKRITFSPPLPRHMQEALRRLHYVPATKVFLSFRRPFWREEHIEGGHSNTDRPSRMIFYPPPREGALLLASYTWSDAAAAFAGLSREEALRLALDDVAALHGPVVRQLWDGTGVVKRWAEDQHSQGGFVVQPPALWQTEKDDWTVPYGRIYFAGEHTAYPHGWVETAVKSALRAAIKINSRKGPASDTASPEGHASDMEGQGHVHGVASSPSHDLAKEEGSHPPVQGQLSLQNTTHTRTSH

SMILES | EC50 [nM]
O=C1OC(CO)CN1c1ccc(Cc2cc3ccccc3[nH]c2=O)cn1 (racemic) [Example 49, rac-5-(hydroxymethyl)-3-(5-((2-oxo-1,2-dihydroquinolin-3-yl)methyl)pyridin-2-yl)oxazolidin-2-one] | 15.6
O=c1[nH]c2ccccc2cc1Cc1nnc(-c2ccn3ncnc3c2)o1 [Example 26, 3-((5-([1,2,4]triazolo[1,5-a]pyridin-7-yl)-1,3,4-oxadiazol-2-yl)methyl)quinolin-2(1H)-one] | 314
N#Cc1cn[nH]c1-c1nnc(Cc2cc3ccccc3[nH]c2=O)o1 [Example 41, 5-(5-((2-oxo-1,2-dihydroquinolin-3-yl)methyl)-1,3,4-oxadiazol-2-yl)-1H-pyrazole-4-carbonitrile] | 13.4
O=c1[nH]c2ccccc2cc1Cc1nnc(-c2ncnc3c2CCC3)o1 [Example 40, 3-((5-(6,7-dihydro-5H-cyclopenta[d]pyrimidin-4-yl)-1,3,4-oxadiazol-2-yl)methyl)quinolin-2(1H)-one] | 23.4
Cc1nnc(Cc2cc3ccccc3[nH]c2=O)o1 [Example 20, 3-((5-methyl-1,3,4-oxadiazol-2-yl)methyl)quinolin-2(1H)-one] | 624
O=c1[nH]c2ccccc2cc1Cc1cnn(CC2(C(F)F)CC2)c1 [Example 111, 3-((1-((1-(difluoromethyl)cyclopropyl)methyl)-1H-pyrazol-4-yl)methyl)quinolin-2(1H)-one] | 24.6
CC1CN(c2ccc(Cc3cc4cnccc4[nH]c3=O)cc2)C(=O)O1 (single isomer, unassigned) [Example 189, (S or R)-5-methyl-3-(4-((2-oxo-1,2-dihydro-1,6-naphthyridin-3-yl)methyl)phenyl)oxazolidin-2-one] | 16.7
O=c1[nH]c2ccccc2cc1Cc1cnc(-c2ccc(F)cc2)o1 [Example 138, 3-((2-(4-fluorophenyl)oxazol-5-yl)methyl)quinolin-2(1H)-one] | 36.9
CC(C)(O)c1ccc2[nH]c(=O)c(Cc3ccccc3)cc2c1 [Example 173, 3-Benzyl-6-(2-hydroxypropan-2-yl)quinolin-2(1H)-one] | 6840
O=c1[nH]c2cccnc2cc1Cc1cccc(OC(F)(F)F)c1 [Example 105, 3-(3-(trifluoromethoxy)benzyl)-1,5-naphthyridin-2(1H)-one] | 619
O=c1[nH]c2ccccc2cc1Cc1nnc(C2CC3(CCC3)C2)o1 [Example 21, 3-((5-(spiro[3.3]heptan-2-yl)-1,3,4-oxadiazol-2-yl)methyl)quinolin-2(1H)-one] | 177
O=c1[nH]c2cnccc2cc1Cc1ccccc1 [Example 104, 3-benzyl-1,7-naphthyridin-2(1H)-one] | 9180
O=c1[nH]c2ccccc2cc1Cc1nnc(-c2scnc2Cl)o1 [Example 38, 3-((5-(4-chlorothiazol-5-yl)-1,3,4-oxadiazol-2-yl)methyl)quinolin-2(1H)-one] | 25.2
O=c1[nH]c2ccccc2cc1Cc1cc(-c2ccccc2)no1 [Example 140, 3-((3-phenylisoxazol-5-yl)methyl)quinolin-2(1H)-one] | 23.4

Now those with a lower EC50, led by results:

EC50 [nM] | SMILES
12.8 | O=c1[nH]c2ccccc2cc1Cc1nnc(Cc2ccccc2F)o1 [Example 8, 3-((5-(2-fluorobenzyl)-1,3,4-oxadiazol-2-yl)methyl)quinolin-2(1H)-one]
11.8 | CC(O)C(C#N)c1ccc(Cc2cc3ccccc3[nH]c2=O)cc1 (single isomer, unassigned) [Example 102C, 3-hydroxy-2-(4-((2-oxo-1,2-dihydroquinolin-3-yl)methyl)phenyl)butanenitrile]
11.1 | O=C1NCc2ccc(Cc3cc4cnccc4[nH]c3=O)cc21 [Example 118, 3-((3-oxoisoindolin-5-yl)methyl)-1,6-naphthyridin-2(1H)-one]
10.8 | O=c1[nH]c2ccccc2cc1Cc1ccc(CC2CNC2)cc1 [compound 64, 3-(4-(azetidin-3-ylmethyl)benzyl)quinolin-2(1H)-one]
10.2 | O=c1[nH]c2ccccc2cc1Cc1nnc(-c2cc3c(s2)CCC3)o1 [Example 39, 3-((5-(5,6-dihydro-4H-cyclopenta[b]thiophen-2-yl)-1,3,4-oxadiazol-2-yl)methyl)quinolin-2(1H)-one]
9.7 | O=c1[nH]c2ccccc2cc1Cc1ccc(C2CNC2)cc1 [Example 63, 3-(4-(azetidin-3-yl)benzyl)quinolin-2(1H)-one]
9.6 | C[C@@](O)(c1ccc(Cc2cc3ccccc3[nH]c2=O)cc1)C(F)F (stereo in doubt) [Example 90A, 3-(4-(1,1-difluoro-2-hydroxypropan-2-yl)benzyl)quinolin-2(1H)-one]
9.1 | O=C1NC(=O)c2cc(Cc3cc4ccccc4[nH]c3=O)ccc21 [Example 185, 5-((2-oxo-1,2-dihydroquinolin-3-yl)methyl)isoindoline-1,3-dione]
9 | O=c1[nH]c2ccccc2cc1Cc1ccc([C@H]2CCNC2)cc1 [65B]
8.5 | O=c1[nH]c2ccccc2cc1Cc1cnc(N2CCCC2)s1 [Example 139, 3-((2-(pyrrolidin-1-yl)thiazol-5-yl)methyl)quinolin-2(1H)-one]
7.7 | Cc1n[nH]c(-c2nnc(Cc3cc4ccccc4[nH]c3=O)o2)c1C [Example 44, 3-((5-(3,4-dimethyl-1H-pyrazol-5-yl)-1,3,4-oxadiazol-2-yl)methyl)quinolin-2(1H)-one]
7.3 | CC(C)(C#N)c1ccc(Cc2cc3cnccc3[nH]c2=O)cc1 [Example 100, 2-methyl-2-(4-((2-oxo-1,2-dihydro-1,6-naphthyridin-3-yl)methyl)phenyl)propanenitrile]
6.8 | CC1(O)CC(c2ccc(Cc3cc4cnccc4[nH]c3=O)cc2)C1 (centres unmarked) [compound 162, 3-(4-(3-hydroxy-3-methylcyclobutyl)benzyl)-1,6-naphthyridin-2(1H)-one]
6.4 | CS(=O)(=O)NCc1ccc(Cc2cc3ccccc3[nH]c2=O)cc1 [Example 73, N-(4-((2-oxo-1,2-dihydroquinolin-3-yl)methyl)benzyl)methanesulfonamide]
5.9 | N#CC1(c2ccc(Cc3cc4ccccc4[nH]c3=O)cn2)COC1 [Example 99, 3-(5-((2-oxo-1,2-dihydroquinolin-3-yl)methyl)pyridin-2-yl)oxetane-3-carbonitrile]
5.6 | O=C1OCCN1c1ncc(Cc2cc3ccccc3[nH]c2=O)cc1Cl [Example 53]
4.2 | O=C1NCc2cc(F)c(Cc3cc4ccccc4[nH]c3=O)cc21 [Example 87, 3-((6-fluoro-3-ixoisoindolin-5-yl)methyl)quinolin-2(1H)-one]
2.4 | O=c1[nH]c2ccccc2cc1Cc1ccc2c(c1)S(=O)(=O)CC2 [Example 81, 3-((1,1-dioxido-2,3-dihydrobenzo[b]thiophen-6-yl)methyl)quinolin-2(1H)-one]
2 | O=c1[nH]c2ccccc2cc1Cc1nnc(-c2c(F)cccc2F)o1 [Example 3, 3-((5-(2,6-difluorophenyl)-1,3,4-oxadiazol-2-yl)methyl)quinolin-2(1H)-one]
1.7 | N#CC1CC(Oc2ccc(Cc3cc4ccccc4[nH]c3=O)cc2)C1 (centres unmarked) [Example 146, 3-(4-((2-oxo-1,2-dihydroquinolin-3-yl)methyl)phenoxy)cyclobutane-1-carbonitrile]
0.9 | CC(=O)c1cccc(Cc2cc3ccccc3[nH]c2=O)c1 [Example 86, 3-(3-acetylbenzyl)quinolin-2(1H)-one]
